Measurements as given in ChEMBL document CHEMBL1134226, “The amide hydrogen of (-)-indolactam-V and benzolactam-V8's plays a critical role in protein kinase C binding and tumor-promoting activities” (Bioorg Med Chem Lett, 2001).

Tests used:
HL-60 [1] = test: Tested for superoxide (O2-) generation inducing activity in differentiated HL-60 cells at 10e-4 M; type: functional, Homo sapiens
HL-60 [2] = test: Tested for superoxide (O2-) generation inducing activity in differentiated HL-60 cells at 10e-5 M; type: functional, Homo sapiens
HL-60 [3] = test: Tested for superoxide (O2-) generation inducing activity in differentiated HL-60 cells at 10e-6 M; type: functional, Homo sapiens
[4] = molecular target: T1, Protein kinase C alpha type (Homo sapiens, UniProt P17252); test: Inhibition of [3H]phorbol-12,13-dibutyrate (PDBu) binding to Protein kinase C alpha C1a domain
[5] = molecular target: T1, Protein kinase C alpha type; test: Inhibition of [3H]phorbol-12,13-dibutyrate (PDBu) binding to Protein kinase C alpha C1b domain
[6] = molecular target: T2, Protein kinase C delta type (Homo sapiens, UniProt Q05655); test: Inhibition of [3H]phorbol-12,13-dibutyrate (PDBu) binding to Protein kinase C delta C1a domain
T2 sequence (Q05655 whole entry, the tested form may be a part): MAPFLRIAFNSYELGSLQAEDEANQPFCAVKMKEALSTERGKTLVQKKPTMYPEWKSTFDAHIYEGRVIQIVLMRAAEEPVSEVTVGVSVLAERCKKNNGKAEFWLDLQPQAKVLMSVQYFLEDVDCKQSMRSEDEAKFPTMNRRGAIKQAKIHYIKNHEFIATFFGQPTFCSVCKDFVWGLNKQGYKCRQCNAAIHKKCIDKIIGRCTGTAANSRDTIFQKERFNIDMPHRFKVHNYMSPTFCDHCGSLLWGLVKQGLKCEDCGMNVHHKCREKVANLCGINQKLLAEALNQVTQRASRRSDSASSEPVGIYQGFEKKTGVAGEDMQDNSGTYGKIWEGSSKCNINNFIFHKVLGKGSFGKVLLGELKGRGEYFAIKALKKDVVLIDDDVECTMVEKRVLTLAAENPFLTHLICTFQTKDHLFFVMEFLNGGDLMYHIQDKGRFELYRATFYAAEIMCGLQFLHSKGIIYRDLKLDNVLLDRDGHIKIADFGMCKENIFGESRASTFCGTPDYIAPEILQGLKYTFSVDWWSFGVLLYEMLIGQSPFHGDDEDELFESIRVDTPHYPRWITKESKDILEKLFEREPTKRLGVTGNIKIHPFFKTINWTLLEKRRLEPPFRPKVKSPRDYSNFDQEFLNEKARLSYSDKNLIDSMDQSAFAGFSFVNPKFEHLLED

[7] = molecular target: T3, Protein kinase C beta type (Homo sapiens, UniProt P05771); test: Inhibition of [3H]phorbol-12,13-dibutyrate (PDBu) binding to Protein kinase C beta C1b domain
Target sequence in this assay (P05771 whole entry, looked up, the tested form may be a part): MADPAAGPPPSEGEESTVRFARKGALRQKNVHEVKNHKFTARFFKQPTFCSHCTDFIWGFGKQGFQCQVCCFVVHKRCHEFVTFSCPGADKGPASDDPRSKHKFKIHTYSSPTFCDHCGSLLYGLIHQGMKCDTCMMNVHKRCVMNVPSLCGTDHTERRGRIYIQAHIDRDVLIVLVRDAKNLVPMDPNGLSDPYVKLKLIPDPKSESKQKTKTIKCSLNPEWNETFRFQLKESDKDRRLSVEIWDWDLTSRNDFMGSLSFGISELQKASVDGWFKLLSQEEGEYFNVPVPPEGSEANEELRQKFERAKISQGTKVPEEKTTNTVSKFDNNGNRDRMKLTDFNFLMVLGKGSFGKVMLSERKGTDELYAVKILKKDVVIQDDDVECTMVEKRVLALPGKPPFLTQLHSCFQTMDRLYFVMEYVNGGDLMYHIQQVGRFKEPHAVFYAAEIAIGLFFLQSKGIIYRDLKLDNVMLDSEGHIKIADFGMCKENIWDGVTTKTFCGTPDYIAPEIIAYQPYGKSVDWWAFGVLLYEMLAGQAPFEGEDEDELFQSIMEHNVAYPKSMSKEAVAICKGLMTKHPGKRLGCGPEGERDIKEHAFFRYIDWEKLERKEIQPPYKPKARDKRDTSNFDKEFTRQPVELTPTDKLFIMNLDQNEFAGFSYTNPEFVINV

[8] = molecular target: T3, Protein kinase C beta type; test: Inhibition of [3H]phorbol-12,13-dibutyrate (PDBu) binding to Protein kinase C beta C1a
Target sequence in this assay (P05771 whole entry, the tested form may be a part): as the sequence (P05771 whole entry, looked up, the tested form may be a part) above

[9] = molecular target: T2, Protein kinase C delta type; test: Inhibition of [3H]phorbol-12,13-dibutyrate (PDBu) binding to Protein kinase C delta C1b domain
[10] = molecular target: Protein kinase C theta type (Homo sapiens, UniProt Q04759); test: Inhibition of [3H]phorbol-12,13-dibutyrate (PDBu) binding to Protein kinase C theta C1b domain
Protein kinase C theta type, sequence (Q04759 whole entry, the tested form may be a part): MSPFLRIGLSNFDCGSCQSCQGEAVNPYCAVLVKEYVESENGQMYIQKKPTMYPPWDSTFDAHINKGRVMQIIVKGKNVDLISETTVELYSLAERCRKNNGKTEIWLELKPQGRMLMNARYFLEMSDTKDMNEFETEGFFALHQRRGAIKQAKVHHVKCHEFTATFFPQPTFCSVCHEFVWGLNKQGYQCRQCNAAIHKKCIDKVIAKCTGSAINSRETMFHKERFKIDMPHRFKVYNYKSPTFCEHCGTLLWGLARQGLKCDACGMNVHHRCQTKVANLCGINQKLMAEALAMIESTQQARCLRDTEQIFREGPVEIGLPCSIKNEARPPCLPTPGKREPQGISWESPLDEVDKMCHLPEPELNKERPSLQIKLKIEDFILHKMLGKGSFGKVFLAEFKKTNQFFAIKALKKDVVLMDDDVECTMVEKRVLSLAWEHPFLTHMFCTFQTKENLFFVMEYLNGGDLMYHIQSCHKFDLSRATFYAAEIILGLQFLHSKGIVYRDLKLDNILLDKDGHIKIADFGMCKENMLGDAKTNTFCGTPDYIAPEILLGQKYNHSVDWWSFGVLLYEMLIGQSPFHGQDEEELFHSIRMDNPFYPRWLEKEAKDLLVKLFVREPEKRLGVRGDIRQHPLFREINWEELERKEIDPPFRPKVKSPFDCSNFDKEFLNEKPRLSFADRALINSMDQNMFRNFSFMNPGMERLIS

[11] = molecular target: T4, Protein kinase C gamma type (Homo sapiens, UniProt P05129); test: Inhibition of [3H]phorbol-12,13-dibutyrate (PDBu) binding to Protein kinase C gamma C1a domain
[12] = molecular target: T4, Protein kinase C gamma type; test: Inhibition of [3H]phorbol-12,13-dibutyrate (PDBu) binding to Protein kinase C gamma C1b domain
[13] = molecular target: T5, Protein kinase C eta type (Homo sapiens, UniProt P24723); test: Inhibition of [3H]phorbol-12,13-dibutyrate (PDBu) binding to Protein kinase C eta C1b domain
T5 sequence (P24723 whole entry, the tested form may be a part): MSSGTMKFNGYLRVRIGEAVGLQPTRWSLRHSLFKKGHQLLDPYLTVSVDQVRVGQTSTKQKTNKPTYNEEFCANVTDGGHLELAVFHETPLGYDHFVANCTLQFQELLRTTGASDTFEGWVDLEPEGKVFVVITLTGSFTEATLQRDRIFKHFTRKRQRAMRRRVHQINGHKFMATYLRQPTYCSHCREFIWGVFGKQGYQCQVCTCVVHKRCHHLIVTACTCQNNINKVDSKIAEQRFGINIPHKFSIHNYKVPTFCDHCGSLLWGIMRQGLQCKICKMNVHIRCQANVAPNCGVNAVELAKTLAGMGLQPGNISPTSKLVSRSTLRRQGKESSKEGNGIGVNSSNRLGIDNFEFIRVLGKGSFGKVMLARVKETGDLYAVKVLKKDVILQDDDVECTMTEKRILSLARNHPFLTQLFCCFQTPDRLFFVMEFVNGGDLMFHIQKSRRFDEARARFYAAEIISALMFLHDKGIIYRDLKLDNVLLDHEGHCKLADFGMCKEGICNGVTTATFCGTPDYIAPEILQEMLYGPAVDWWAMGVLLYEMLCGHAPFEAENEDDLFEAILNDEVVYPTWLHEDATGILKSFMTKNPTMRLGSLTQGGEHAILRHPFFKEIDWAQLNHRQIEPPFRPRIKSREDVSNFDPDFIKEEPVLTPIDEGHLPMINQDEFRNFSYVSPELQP

[14] = molecular target: T6, Protein kinase C epsilon type (Homo sapiens, UniProt Q02156); test: Inhibition of [3H]phorbol-12,13-dibutyrate (PDBu) binding to Protein kinase C epsilon C1a domain
T6 sequence (Q02156 whole entry): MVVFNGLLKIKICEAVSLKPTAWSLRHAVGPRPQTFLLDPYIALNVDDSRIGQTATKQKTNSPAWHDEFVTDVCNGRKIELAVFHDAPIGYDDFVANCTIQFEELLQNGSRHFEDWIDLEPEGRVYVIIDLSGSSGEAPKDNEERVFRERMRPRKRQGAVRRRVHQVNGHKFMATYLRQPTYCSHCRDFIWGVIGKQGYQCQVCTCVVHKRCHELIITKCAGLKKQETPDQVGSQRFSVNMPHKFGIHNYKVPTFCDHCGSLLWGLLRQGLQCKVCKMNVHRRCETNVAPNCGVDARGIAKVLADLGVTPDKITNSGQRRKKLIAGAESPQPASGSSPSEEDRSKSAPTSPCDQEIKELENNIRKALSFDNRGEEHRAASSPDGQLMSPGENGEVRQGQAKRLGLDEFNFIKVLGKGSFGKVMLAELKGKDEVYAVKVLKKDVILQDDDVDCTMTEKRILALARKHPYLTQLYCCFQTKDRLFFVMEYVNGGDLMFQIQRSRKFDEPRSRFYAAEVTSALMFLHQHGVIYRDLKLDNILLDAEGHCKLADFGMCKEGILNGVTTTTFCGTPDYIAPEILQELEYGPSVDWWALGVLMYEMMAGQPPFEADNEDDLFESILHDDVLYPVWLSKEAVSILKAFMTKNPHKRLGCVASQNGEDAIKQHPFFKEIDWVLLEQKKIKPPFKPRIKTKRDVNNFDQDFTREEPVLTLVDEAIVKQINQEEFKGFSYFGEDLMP

[15] = molecular target: T6, Protein kinase C epsilon type; test: Inhibition of [3H]phorbol-12,13-dibutyrate (PDBu) binding to Protein kinase C epsilon C1b domain
[16] = molecular target: T5, Protein kinase C eta type; test: Inhibition of [3H]phorbol-12,13-dibutyrate (PDBu) binding to Protein kinase C eta C1a domain
Raji (Homo sapiens) [17] = test: Tested for epstein barr virus early antigen (EBV-EA) inducing activity in Raji cells at 10e-6 M
Raji (Homo sapiens) [18] = test: Tested for epstein barr virus early antigen (EBV-EA) inducing activity in Raji cells at 10e-5 M
Raji (Homo sapiens) [19] = test: Tested for epstein barr virus early antigen (EBV-EA) inducing activity in Raji cells at 10e-4.5 M
HL-60 [20] = test: Tested for epstein barr virus early antigen (EBV-EA) inducing activity in […] at 10e-7 M; type: functional, Homo sapiens
HL-60 [21] = test: Tested for superoxide (O2-) generation inducing activity in differentiated HL-60 cells at 10e-7 M; type: functional, Homo sapiens

Structure (SMILES) | Activity (HL-60 [2]) [nM min-1 ml-1] | Activity (HL-60 [3]) [nM min-1 ml-1] | Ki [4] [µM] | Ki [5] [µM] | Ki [6] [µM] | Ki [7] [µM] | Ki [8] [µM] | Ki [9] [µM] | Ki [10] [µM] | Ki [11] [µM] | Ki [12] [µM] | Ki [13] [µM] | Ki [14] [µM] | Ki [15] [µM] | Ki [16] [µM] | Activity (Raji (Homo sapiens) [17]) [%] | Activity (Raji (Homo sapiens) [18]) [%] | Activity (Raji (Homo sapiens) [19]) [%] | Activity (HL-60 [21]) [nM min-1 ml-1] | further results
CCCCCCCCCCc1ccc2c(c1)C[C@@H](CO)OC(=O)[C@H](C(C)C)N2C | 0.2 | 0.11 | > 10 | > 10 | 70.6 | 22 | > 10 | 1.16 | 1.1 | 6.32 | 17.6 | 0.12 | > 10 | 0.262 | > 10 | 0.8 | 1.9 | 5 |  | Activity (HL-60 [1]): 0.19 nM min-1 ml-1
CC(C)[C@H]1C(=O)N[C@H](CO)Cc2c[nH]c3cccc(c23)N1C [INDOLACTUM] | 3.18 | 3.19 |  |  |  |  |  |  |  |  |  |  |  |  |  | 33.5 | 28.9 |  | 0.05 | Activity (HL-60 [20]): 16.8%
CCCCCCCCCCCCCC(=O)O[C@@H]1[C@@H](C)[C@@]2(O)[C@@H](C=C(CO)C[C@]3(O)C(=O)C(C)=C[C@@H]23)[C@@H]2C(C)(C)[C@]12OC(C)=O [PHORBOL MYRISTATE ACETATE] |  |  |  |  |  |  |  |  |  |  |  |  |  |  |  |  |  |  | 1.32 | 
CCCCCCCCCCc1ccc2c(c1)C[C@@H](CO)NC(=O)[C@H](C(C)C)N2C | 3.04 | 0.31 | 0.323 | 4.69 | 2.77 | 0.261 | 0.442 | 0.0146 | 0.0132 | 1.66 | 0.151 | 0.0064 | 8.36 | 0.0131 | 2.49 | 6.7 | 11.3 | 17.6 | 0.33 | 
